These results are taken from PubChem BioAssay AID488788 (Broad Institute, 2010).

For this assay, the target named is CAAX prenyl protease 2 (Saccharomyces cerevisiae (strain ATCC 204508 / S288c)) (UniProt Q03530). Kind of assay: Rce1p protease inhibitors, dose response, biochemical, plate reader, cherry-pick (AID 488788). To be noted: Rce1p enzyme activity; for activity change, negative = inhibition: at 10 µM (top of the series).

Inconclusive results are not listed. Active and inactive are the calls of the source. No rule for the calls is given here.

Chain of CAAX prenyl protease 2 (Saccharomyces cerevisiae (strain ATCC 204508 / S288c)) (Q03530 whole entry, looked up): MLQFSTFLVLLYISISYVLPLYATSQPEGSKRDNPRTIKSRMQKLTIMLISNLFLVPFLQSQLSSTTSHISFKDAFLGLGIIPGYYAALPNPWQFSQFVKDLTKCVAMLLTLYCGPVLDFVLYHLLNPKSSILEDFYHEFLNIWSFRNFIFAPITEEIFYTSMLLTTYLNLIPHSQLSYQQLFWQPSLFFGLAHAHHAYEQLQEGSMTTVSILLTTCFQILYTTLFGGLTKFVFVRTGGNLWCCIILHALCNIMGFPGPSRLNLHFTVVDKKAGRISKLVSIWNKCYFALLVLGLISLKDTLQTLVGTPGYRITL

As to `Cc1cc(C)n2nc(CC(=O)NNC(=O)c3ccc(N(C)C)cc3)nc2n1`, the “activity change, negative = inhibition” value was “inactive”.

As for `CC1COc2c(N3CCN(C)CC3)c(F)cc3c(=O)c(C(=O)O)cn1c23` (configuration not stated), the AC50 is > 10 µM (inactive).

As to `O=C1NC2(C=Cc3c(ccc4ccccc34)O2)Oc2ccccc21` (configuration not stated), the “activity change, negative = inhibition” value was “inactive”.

As for `Cc1nc2c(C)cccn2c(=O)c1NC(=O)COc1ccccc1`, the “activity change, negative = inhibition” value is “inactive”.

For `Cc1ccc(C2(COC(=O)C(C)C)CO2)c(OC(=O)C(C)C)c1` (configuration not stated), the “activity change, negative = inhibition” value is “inactive”.

`CC(=O)c1c(O)cc(O)c(C(C)=O)c1O`: the “activity change, negative = inhibition” value was “inactive”.

Turning to `O=[N+]([O-])c1cc(S(=O)(=O)N2CCCC2)ccc1NN=C1CCCCC1`, the “activity change, negative = inhibition” value was “inactive”.

In the case of `CSc1nc(NCC(C)O)c2c3c(sc2n1)CN(C)CC3` (configuration not stated), the “activity change, negative = inhibition” value is “inactive”.

Consider `CC1=CC2=NC(=O)CC(C)(C(=O)N(CC(=O)NC3CCCC3)Cc3ccccc3)N2C=C1` (configuration not stated), for which the “activity change, negative = inhibition” value is “inactive”.

`C=CCNc1oc(/C=C/c2ccccc2)nc1C#N`: the “activity change, negative = inhibition” value was “inactive”.

`Cc1c(CCC(=O)O)c(=O)oc2cc(OCc3cccc(F)c3)ccc12`: the “activity change, negative = inhibition” value is “inactive”.

As for `COCCNc1nc(N)c([N+](=O)[O-])c(N2CCCCCC2)n1`, the “activity change, negative = inhibition” value was “inactive”.

Regarding `C/C(=N\NC(=O)c1ccc(Br)cc1)c1cccc(NC(=O)c2cccnc2)c1`, the “activity change, negative = inhibition” value is “inactive”.

As for `O=C(CN1CCC(NC(=O)c2ccc(Br)cc2)CC1)NCc1cccs1`, the “activity change, negative = inhibition” value is “inactive”.

As to `CCCCOC(=O)Nc1nc(C)c(C(=O)OCC)s1`, the “activity change, negative = inhibition” value is “inactive”.

On to `COC(C/C=C/[C@H](O)[C@H](C)OCc1ccccc1)OC`, for which the “activity change, negative = inhibition” value is “inactive”.

For `COc1cccc(-c2nc(C#N)c(N3CCN(C(=O)c4ccco4)CC3)o2)c1`, the “activity change, negative = inhibition” value was “inactive”.

In the case of `CCCCNC(=O)C(CC)Sc1nc2sc(C(=O)OC)c(C)c2c(=O)n1N` (configuration not stated), the “activity change, negative = inhibition” value was “inactive”.

`O=C(CCCn1c(=O)[nH]c2ccc(Br)cc2c1=O)NCc1ccc(Cl)cc1`: the “activity change, negative = inhibition” value was “inactive”.

Turning to `CCn1cc(C(=O)N[C@H](C)c2ccccc2)c(=O)c2cc(F)c(N3CCN(C)CC3)cc21`, the “activity change, negative = inhibition” value was “inactive”.

Consider `C/C=C(/C)C(=O)O[C@H]1[C@@H](O)c2c(ccc3ccc(=O)oc23)OC1(C)C`, for which the “activity change, negative = inhibition” value was “inactive”.

Take `COC(=O)c1ccc(-c2ccc(CNCC(O)c3ccccc3)o2)cc1` (configuration not stated): the “activity change, negative = inhibition” value is “inactive”.

`Cc1cc(C(=O)N[C@H](c2ccccc2)[C@@]2(C)C[C@@H]2[C@@H](C)C(=O)Nc2ccc3ccccc3c2)n(C)n1`: the “activity change, negative = inhibition” value is “inactive”.

`CCOC(=O)c1sc2nc(C3CC3)cc(-c3ccc(F)cc3)c2c1N`: the “activity change, negative = inhibition” value was “inactive”.

`COc1ccc2[nH]c(C(=O)NCCCn3ccnc3)cc2c1`: the “activity change, negative = inhibition” value was “inactive”.

Take `Nc1c(C(=O)NCc2ccccc2)sc2nc(N3CCOCC3)c3c(c12)CCCC3`: the “activity change, negative = inhibition” value was “inactive”.

For `O=C(Nc1cccc2ncccc12)c1cccnc1`, the “activity change, negative = inhibition” value is “inactive”.

In the case of `Cc1ccc(NS(=O)(=O)c2ccc(NC(=O)N3CCCCC3)cc2)cc1`, the “activity change, negative = inhibition” value is “inactive”.

`Cc1ccc(C(=O)N2N=C(c3ccccc3O)CC2c2ccccc2)cc1` (configuration not stated): the “activity change, negative = inhibition” value is “inactive”.

`CC(C)c1cccc(OCC(=O)Nc2ccc(S(=O)(=O)Nc3ccccn3)cc2)c1`: the “activity change, negative = inhibition” value was “inactive”.

On to `COC(C/C=C/[C@H](O)[C@@H](C)OCc1ccccc1)OC`, for which the “activity change, negative = inhibition” value is “inactive”.

`CC1=NN(c2ccccc2)C(=O)/C1=C\c1ccc(Br)s1`: the “activity change, negative = inhibition” value is “inactive”.

Consider `CC(=O)Nc1ccc(Cl)cc1C1COC(=O)C1=N` (configuration not stated), for which the “activity change, negative = inhibition” value is “inactive”.

With `COc1ccc(CC(=O)OCC(=O)Nc2ccc(Br)cc2)cc1`, the “activity change, negative = inhibition” value was “inactive”.

Consider `O=C(Nc1cc(S(=O)(=O)N2CCCCC2)ccc1Cl)c1ccccc1NS(=O)(=O)c1ccc(F)cc1`, for which the “activity change, negative = inhibition” value was “inactive”.

For the compound `Cc1cccc(N2C(=O)c3cccc4c(N5CCCCC5)c([N+](=O)[O-])cc(c34)C2=O)c1C`, the “activity change, negative = inhibition” value is “inactive”.

As to `CC(Oc1ccc2c3c(c(=O)oc2c1)CCCC3)C(=O)NC1CC(C)(C)NC(C)(C)C1` (configuration not stated), the “activity change, negative = inhibition” value is “inactive”.

For the compound `C=CCn1c(N2CCCCCC2)nc2c1c(=O)n(C)c(=O)n2C`, the “activity change, negative = inhibition” value was “inactive”.

As for `O=C1CCCC(O)=C1N=Nc1ccc2ncsc2c1`, the “activity change, negative = inhibition” value was “inactive”.

Turning to `COCCN1C(=O)/C(=C/c2ccc(Oc3ccc([N+](=O)[O-])cn3)c(OC)c2)SC1=Nc1ccccc1`, the “activity change, negative = inhibition” value was “inactive”.

As for `COC(C/C=C/[C@@H](O)[C@H](C)OCc1ccccc1)OC`, the “activity change, negative = inhibition” value was “inactive”.

As to `Cc1nn(-c2ccccc2)c2nc(N)c(C(N)=O)cc12`, the “activity change, negative = inhibition” value was “inactive”.

In the case of `COc1ccc(C2C3=C(CC(C)(C)CC3=O)Nc3n[nH]c(C)c32)cc1` (configuration not stated), the “activity change, negative = inhibition” value was “inactive”.

Regarding `Cc1nn(CCC(=O)O)c2nc(-c3cccnc3)cc(C(F)(F)F)c12`, the “activity change, negative = inhibition” value was “inactive”.

For `CCN1CCN(c2ccc(NC(=O)c3cccc(OCc4ccccc4)c3)cc2)CC1`, the “activity change, negative = inhibition” value is “inactive”.

As for `c1ccc(C[n+]2cccc3c4ccccc4ccc32)cc1`, the “activity change, negative = inhibition” value is “inactive”.

As to `O=C1NC(c2ccc(Br)cc2)Nc2ccccc21` (configuration not stated), the “activity change, negative = inhibition” value was “inactive”.

As to `Cc1cc(C(=O)N/N=C/c2c3ccccc3cc3ccccc23)n[nH]1`, the “activity change, negative = inhibition” value is “inactive”.

For the compound `NC(N)=NC(=O)c1nc(Cl)c(N)nc1N`, the “activity change, negative = inhibition” value is “inactive”.

In the case of `C=CC[N+]1(C)CC[C@]23c4c5ccc(O)c4O[C@H]2C(=O)CC[C@@]3(O)[C@H]1C5` (some centres not stated), the “activity change, negative = inhibition” value is “inactive”.

As to `COC(=O)Cn1c(CCC(=O)O)ccc1-c1ccccc1`, the “activity change, negative = inhibition” value was “inactive”.

For `CCn1cc(C(=O)NCCO)c(=O)c2cc(F)c(N3CCN(C)CC3)cc21`, the “activity change, negative = inhibition” value was “inactive”.

In the case of `CC1=C(C(=O)N2CCOCC2)C(c2ccccc2F)C2=C(CC(C)(C)CC2=O)N1` (configuration not stated), the “activity change, negative = inhibition” value is “inactive”.

For `O=C(COC(=O)c1ccc(S(=O)(=O)N2CCCC2)cc1)NCc1ccccc1`, the “activity change, negative = inhibition” value is “inactive”.

For the compound `CCNC(=S)NNC(=O)CCn1cc(C)cn1`, the “activity change, negative = inhibition” value is “inactive”.

Take `CN(C)CCNc1ncnc2oc(-c3ccccc3)c(-c3ccccc3)c12`: the “activity change, negative = inhibition” value was “inactive”.

Consider `NS(=O)(=O)c1ccc(NC(=O)/C=C/c2cn(-c3ccccc3)nc2-c2cccc(Cl)c2)cc1`, for which the “activity change, negative = inhibition” value was “inactive”.

With `CCOC(=O)c1c(C2COc3ccccc3O2)csc1NC(=O)c1ccccc1` (configuration not stated), the “activity change, negative = inhibition” value was “inactive”.

On to `COc1ccccc1-n1c(-c2ccccc2)c[nH]c1=S`, for which the “activity change, negative = inhibition” value is “inactive”.

For the compound `CC(=O)N[C@@H](C)c1nc2ccccc2n1CCCN1CCN(c2nc(-c3ccc(C)cc3)cs2)CC1`, the “activity change, negative = inhibition” value is “inactive”.

For `CCC1CCCCN1C(=O)NC(=O)c1ccccc1` (configuration not stated), the “activity change, negative = inhibition” value was “inactive”.

Consider `CCOc1cc(-c2nc3c(C)cccn3c2NCC2CCCO2)ccc1O` (configuration not stated), for which the “activity change, negative = inhibition” value was “inactive”.

`COc1cccc(NC(=O)Nc2cccn(Cc3ccc(C)cc3)c2=O)c1`: the “activity change, negative = inhibition” value is “inactive”.

Consider `CCN1CCN(Cc2c(O)ccc3c(=O)c(-c4ccccc4OC)coc23)CC1`, for which the “activity change, negative = inhibition” value was “inactive”.

On to `CC(=O)OCC[N+](C)(C)C`, for which the “activity change, negative = inhibition” value is “inactive”.

As for `CCCCn1c(-c2sccc2C)n[nH]c1=S`, the “activity change, negative = inhibition” value is “inactive”.

In the case of `CCc1nnc(NC(=O)c2ccc(NS(=O)(=O)c3ccccc3)cc2)s1`, the “activity change, negative = inhibition” value is “inactive”.

With `Nc1nc2n[nH]nc2c(=O)[nH]1`, the “activity change, negative = inhibition” value was “inactive”.

Turning to `CCc1ccc(NC(=O)c2cnc(N3CCN(c4ccccn4)CC3)c3ccccc23)cc1`, the “activity change, negative = inhibition” value was “inactive”.

Take `COc1ccccc1NC(=O)CN(c1ccc(C23CC4CC(CC(C4)C2)C3)cc1)S(C)(=O)=O`: the “activity change, negative = inhibition” value is “inactive”.

In the case of `O=C1CN(S(=O)(=O)c2ccc([N+](=O)[O-])cc2)CC(=O)N1`, the “activity change, negative = inhibition” value was “inactive”.

For `O=C(C1=C[C@@H](C2CC2)C[C@@H](OCc2ccc(CO)cc2)O1)N1CCN(Cc2ccccc2)CC1`, the “activity change, negative = inhibition” value is “inactive”.

In the case of `COc1ccc(S(=O)(=O)N(CC(=O)N2CCCC2)Cc2ccccc2)cc1`, the “activity change, negative = inhibition” value is “inactive”.

For `CC1CCC/C(=C\Nc2ccccc2C(=O)O)C1=O` (configuration not stated), the “activity change, negative = inhibition” value was “inactive”.

On to `Cc1c(Cl)c([N+](=O)[O-])nn1CC(=O)N1CCCc2ccccc21`, for which the “activity change, negative = inhibition” value was “inactive”.

As for `CN1C(=O)c2ccccc2N(C)C1c1ccccc1Cl` (configuration not stated), the “activity change, negative = inhibition” value is “inactive”.

For `CCCCOc1ccc(Cc2c(COCC)[nH]c(=S)[nH]c2=O)cc1`, the “activity change, negative = inhibition” value was “inactive”.

In the case of `COc1ccc(OC)c(/C=N/c2c(-c3ccc(O)c(OC)c3)nc3ccccn23)c1`, the “activity change, negative = inhibition” value is “inactive”.

With `COc1ccc(/C=C/c2nc3ccccc3n2C)cc1`, the “activity change, negative = inhibition” value was “inactive”.

Turning to `CC(C)C[C@H](NC(=O)c1nc[nH]c1C(=O)N1CCNCC1)C(=O)OCc1ccccc1`, the “activity change, negative = inhibition” value was “inactive”.

As to `COc1ccc2oc(-c3ccccc3)c(C(=O)N3CCOCC3)c2c1`, the “activity change, negative = inhibition” value was “inactive”.

With `Cc1ccc(-c2cc3cccc[n+]3cc2-c2ccc(C)cc2)cc1`, the “activity change, negative = inhibition” value was “inactive”.
